Assay results reported in paper PMC8401042, “Non-Toxic Dimeric Peptides Derived from the Bothropstoxin-I Are Potent SARS-CoV-2 and Papain-like Protease Inhibitors” (Molecules, 2021).
Bridge positions count the residues as written; N and C are the ends. Square brackets hold non-standard residues; d marks the D form. Ends that are not written are not given here. Peptide text beside a SMILES is read from it. I, II: the chains in the order shown.

What was measured:
[1] = target: T1, SARS-CoV-2 PLpro (Severe acute respiratory syndrome coronavirus 2, UniProt P0DTD1); test: Microscale thermophoresis (MST) binding assay; details: 100 nM labelled PLpro, peptides 0.015 to 500 µM, 50 mM HEPES pH 7.5, 100 mM NaCl, 2 mM DTT, DMSO 5%; triplicate, Hill fit
[2] = test system: SARS-CoV-2; details: 24 h, 100 µM
[3] = target: T1, SARS-CoV-2 PLpro; test: SARS-CoV-2 PLpro FRET enzyme inhibition assay; format: biochemical
[4] = target: SARS-CoV-2 Papain-like protease (PL^pro) (SARS-CoV-2) (UniProt P0DTD1)
[5] = target: SARS-CoV-2 Papain-like protease (PL^pro) (SARS-CoV-2) (UniProt P0DTD1); remark: listed apart in the source

| Molecule | Kd [1] [nM] | SARS-CoV-2 % of inhibition at 100 µM [2] [%] | inhibition at 10 µM ([3]; 10 µM peptide, 70 nM enzyme, 27 µM substrate, 37 °C, […]) [%] | IC50 ([3]; calculated from IC50 values, Figure 3A, read-out: pIC50 (−logIC50), PLpro (converted)) [nM] | percent inhibition of PL^pro activity at 10 µM peptide [4] [%] | IC50 of inhibition of PL^pro activity (cleavage of a FRET peptide substrate) [5] [nM] |
| --- | --- | --- | --- | --- | --- | --- |
| CC(C)C[C@@H](NC(=O)[C@@H](Cc1c[nH]cn1)NC(=O)[C@@H](Cc1ccc(O)cc1)NC(=O)[C@@H](CCCNC(=N)N)NC(=O)[C@@H](Cc1ccc(O)cc1)NC(=O)[C@@H](CCCCN)NC(=O)[C@H](N)CCCCN)C(=O)N[C@H](CCCCN)C(=O)N1CCC[C@@H]1C(=O)N[C@H](Cc1ccccc1)C(=O)NCCCC[C@@H](NC(=O)[C@@H](Cc1ccccc1)NC(=O)[C@H]1CCCN1C(=O)[C@@H](CCCCN)NC(=O)[C@@H](CC(C)C)NC(=O)[C@@H](Cc1c[nH]cn1)NC(=O)[C@@H](Cc1ccc(O)cc1)NC(=O)[C@@H](CCCNC(=N)N)NC(=O)[C@@H](Cc1ccc(O)cc1)NC(=O)[C@@H](CCCCN)NC(=O)[C@H](N)CCCCN)C(N)=O [A12] (I: H-[dK][dK][dY][dR][dY][dH][dL][dK][dP][dF][dK]-NH2 / II: H-[dK][dK][dY][dR][dY][dH][dL][dK][dP][dF]; amide I:11-II:C; N-terminus assumed) | 1600 ± 300 | 69 | 96 | 1290 | – | – |
| IFGAILPLALGALKNLIK-NH2 [Hylin a1] | – | – | – | – | 13 | > 10000 |
